Where two headings read alike, the source gives them in different places.
Assays:
Type in all cases: in vivo
[1] = Acute toxicity in female and male mice after oral administration of a single dose; conditions: mouse, in vivo, observation time 14 days, read-out: Peroral Toxicity
Procedure: (§1) The acute toxicity was determined in home-bred female and male mice having body weights of from 20 to 26 gm after oral administration (suspension in a 1% methyl cellulose solution) of a single dose. Observation time: 14 days.

mice = test: as above; conditions: observation time 14 days
Procedure: as §1

blood-sugar = test: Blood-sugar lowering activity in starved female rats after oral administration; conditions: for change in vivo at 1 mg/kg / change in vivo at 5 mg/kg / change in vivo at 10 mg/kg: Rattus norvegicus, po, read-out: Blood-sugar lowering activity, percent as compared with the controls; for change in vivo at 10 mg/kg: 10 mg/kg orally (footnote *)
Procedure: The blood-sugar lowering activity of the test compounds was determined in home-bred female rats with weights of from 180 to 220 grams. Twenty-four hours before starting the test the animals were starved. Before the test the compounds were suspended in 1.5% methyl cellulose and administered to the animals by means of an esophageal tube.
Blood was taken from the retroorbital plexus vein before administration of the test compounds as well as each of 1, 2, 3, and 4 hours after administration. Fifty microliters of each sample were deproteinized with 0.5 ml of 0.33N perchloric acid and centrifuged. The glucose content was determined in the supernatant according to the Hexokinase method by means of an analysis photometer. The statistical evalulation was performed with the t-test according to Student with p=0.05.

[2] = 1 mg/kg orally, 1 hour, n.s. = not statistically significant
[3] = 1 mg/kg orally, 2 hours, n.s. = not statistically significant
[4] = 1 mg/kg orally, 3 hours, n.s. = not statistically significant
[5] = 1 mg/kg orally, 4 hours, n.s. = not statistically significant
[6] = 5 mg/kg orally, 1 hour, n.s. = not statistically significant
[7] = 5 mg/kg orally, 2 hours, n.s. = not statistically significant
[8] = 5 mg/kg orally, 3 hours, n.s. = not statistically significant
[9] = 5 mg/kg orally, 4 hours, n.s. = not statistically significant

Q: For `O=C(Cc1ccc(C(=O)O)cc1)NC(c1ccccc1)c1ccccc1N1CCCCC1` (racemic) [AV, (±)-4-[(2-Piperidino-benzhydryl)-aminocarbonylmethyl]-benzoic acid], which LD50 at 336 h [1] is on record?
A: > 2000 mg/kg

Q: What about the animals died (mice) of the same molecule?
A: 0 out of 10

Q: What about the change in vivo at 1 mg/kg (blood-sugar; [2]) of the same molecule?
A: -41%

Q: And the change in vivo at 1 mg/kg (blood-sugar; [3])?
A: -38%

Q: And the change in vivo at 1 mg/kg (blood-sugar; [4])?
A: -26%

Q: What about the change in vivo at 1 mg/kg (blood-sugar; [5]) of the same molecule?
A: -24%

Q: What about the change in vivo at 5 mg/kg (blood-sugar; [6]) of the same molecule?
A: -44%

Q: And the change in vivo at 5 mg/kg (blood-sugar; [7])?
A: -38%

Q: What about the change in vivo at 5 mg/kg (blood-sugar; [8]) of the same molecule?
A: -41%

Q: What about the change in vivo at 5 mg/kg (blood-sugar; [9]) of the same molecule?
A: -37%

Q: Which LD50 at 336 h [1] does the source give for `CCCC(NC(=O)Cc1ccc(C(=O)O)cc1)c1ccccc1N1CCCCC1` (racemic) [J, (±)-4-[(1-(2-Piperidino-phenyl)-1-butyl)-aminocarbonylmethyl]-benzoic acid] here?
A: > 2000 mg/kg

Q: What about the animals died (mice) of the same molecule?
A: 0 out of 10

Q: And the change in vivo at 1 mg/kg (blood-sugar; [2])?
A: -38%

Q: What about the change in vivo at 1 mg/kg (blood-sugar; [3]) of the same molecule?
A: -32%

Q: What about the change in vivo at 1 mg/kg (blood-sugar; [4]) of the same molecule?
A: -34%

Q: What about the change in vivo at 1 mg/kg (blood-sugar; [5]) of the same molecule?
A: -29%

Q: What about the change in vivo at 5 mg/kg (blood-sugar; [6]) of the same molecule?
A: -44%

Q: What about the change in vivo at 5 mg/kg (blood-sugar; [7]) of the same molecule?
A: -37%

Q: And the change in vivo at 5 mg/kg (blood-sugar; [8])?
A: -42%

Q: And the change in vivo at 5 mg/kg (blood-sugar; [9])?
A: -42%

Q: For `CC/C=C(\NC(=O)Cc1ccc(C(=O)O)cc1)c1ccccc1N1CCCCC1` [A, (Z)-4-[(1-(2-Piperidino-phenyl)-1-buten-1yl)-aminocarbonylmethyl]-benzoicacid], which LD50 at 336 h [1] is on record?
A: > 1000 mg/kg

Q: And the animals died (mice)?
A: 0 out of 6

Q: What about the change in vivo at 1 mg/kg (blood-sugar; [2]) of the same molecule?
A: -43%

Q: What about the change in vivo at 1 mg/kg (blood-sugar; [3]) of the same molecule?
A: -40%

Q: And the change in vivo at 1 mg/kg (blood-sugar; [4])?
A: -33%

Q: What about the change in vivo at 1 mg/kg (blood-sugar; [5]) of the same molecule?
A: -35%

Q: For `Cc1ccc(C(NC(=O)Cc2ccc(C(=O)O)cc2)c2ccccc2N2CCCCC2)cc1` (stereo not drawn) [AA, 4-[(α-(4-Methyl-phenyl)-2-piperidino-benzyl)-aminocarbonylmethyl]-benzoic acid], which LD50 at 336 h [1] is on record?
A: > 1000 mg/kg

Q: And the animals died (mice)?
A: 0 out of 10

Q: And the “Blood-sugar lowering activity, percent as compared with the controls” value (shortened to “Blood-sugar lowering activity, percent”) (blood-sugar; [5])?
A: n.s.

Q: And the “Blood-sugar lowering activity, percent” value (blood-sugar; [9])?
A: n.s.

Q: And the change in vivo at 1 mg/kg (blood-sugar; [2])?
A: -15%

Q: What about the change in vivo at 1 mg/kg (blood-sugar; [3]) of the same molecule?
A: -15%

Q: And the change in vivo at 1 mg/kg (blood-sugar; [4])?
A: -13%

Q: What about the change in vivo at 5 mg/kg (blood-sugar; [6]) of the same molecule?
A: -30%

Q: And the change in vivo at 5 mg/kg (blood-sugar; [7])?
A: -33%

Q: And the change in vivo at 5 mg/kg (blood-sugar; [8])?
A: -14%

Q: Which LD50 at 336 h [1] does the source give for `Cc1cccc(C(NC(=O)Cc2ccc(C(=O)O)cc2)c2ccccc2N2CCCCC2)c1` (stereo not drawn) [AB, 4-[(α-(3-Methyl-phenyl)-2-piperidino-benzyl)-aminocarbonylmethyl]-benzoic acid] here?
A: > 1000 mg/kg

Q: What about the animals died (mice) of the same molecule?
A: 0 out of 10

Q: And the “Blood-sugar lowering activity, percent” value (blood-sugar; [4])?
A: n.s.

Q: What about the “Blood-sugar lowering activity, percent” value (blood-sugar; [5]) of the same molecule?
A: n.s.

Q: What about the change in vivo at 1 mg/kg (blood-sugar; [2]) of the same molecule?
A: -26%

Q: And the change in vivo at 1 mg/kg (blood-sugar; [3])?
A: -15%

Q: And the change in vivo at 5 mg/kg (blood-sugar; [6])?
A: -43%

Q: And the change in vivo at 5 mg/kg (blood-sugar; [7])?
A: -38%

Q: And the change in vivo at 5 mg/kg (blood-sugar; [8])?
A: -36%

Q: What about the change in vivo at 5 mg/kg (blood-sugar; [9]) of the same molecule?
A: -27%

Q: What does the source list for `O=C(Cc1ccc(C(=O)O)cc1)NC(c1ccc(F)cc1)c1ccccc1N1CCCCC1` (stereo not drawn) [AC, 4-[(α-(4-Fluoro-phenyl)-2-piperidino-benzyl)-aminocarbonylmethyl]-benzoic acid]?
A: LD50 at 336 h [1]: > 1000 mg/kg; animals died (mice): 0 out of 10; change in vivo at 5 mg/kg (blood-sugar; [6]): -36%; change in vivo at 5 mg/kg (blood-sugar; [7]): -37%; change in vivo at 5 mg/kg (blood-sugar; [8]): -36%; change in vivo at 5 mg/kg (blood-sugar; [9]): -33%

Q: For `O=C(Cc1ccc(C(=O)O)cc1)NC(c1ccccc1F)c1ccccc1N1CCCCC1` (stereo not drawn) [AD, 4-[(α-(2-Fluoro-phenyl)-2-piperidino-benzyl)-aminocarbonylmethyl]-benzoic acid], which LD50 at 336 h [1] is on record?
A: > 1000 mg/kg

Q: What about the animals died (mice) of the same molecule?
A: 0 out of 10

Q: What about the change in vivo at 1 mg/kg (blood-sugar; [2]) of the same molecule?
A: -16%

Q: What about the change in vivo at 1 mg/kg (blood-sugar; [3]) of the same molecule?
A: -20%

Q: And the change in vivo at 1 mg/kg (blood-sugar; [4])?
A: -17%

Q: And the change in vivo at 1 mg/kg (blood-sugar; [5])?
A: -14%

Q: And the change in vivo at 5 mg/kg (blood-sugar; [6])?
A: -28%

Q: And the change in vivo at 5 mg/kg (blood-sugar; [7])?
A: -32%

Q: What about the change in vivo at 5 mg/kg (blood-sugar; [8]) of the same molecule?
A: -27%

Q: What about the change in vivo at 5 mg/kg (blood-sugar; [9]) of the same molecule?
A: -28%

Q: What does the source list for `O=C(Cc1ccc(C(=O)O)cc1)NC(c1ccc(Cl)cc1)c1ccccc1N1CCCCC1` (stereo not drawn) [AE, 4-[(α-(4-Chloro-phenyl)-2-piperidino-benzyl)-aminocarbonylmethyl]-benzoic acid]?
A: LD50 at 336 h [1]: > 1000 mg/kg; animals died (mice): 0 out of 10; Blood-sugar lowering activity, percent as compared with the controls (blood-sugar; [5]): n.s.; change in vivo at 1 mg/kg (blood-sugar; [2]): -21%; change in vivo at 1 mg/kg (blood-sugar; [3]): -20%; change in vivo at 1 mg/kg (blood-sugar; [4]): -22%; change in vivo at 5 mg/kg (blood-sugar; [6]): -30%; change in vivo at 5 mg/kg (blood-sugar; [7]): -28%; change in vivo at 5 mg/kg (blood-sugar; [8]): -39%; change in vivo at 5 mg/kg (blood-sugar; [9]): -36%

Q: Which results are given for `O=C(Cc1ccc(C(=O)O)cc1)NC(c1ccccn1)c1ccccc1N1CCCCC1` (stereo not drawn) [AG, 4-[(2-Piperidino-α-(2-pyridyl)-benzyl)-aminocarbonylmethyl]-benzoic acid]?
A: LD50 at 336 h [1]: > 1000 mg/kg; animals died (mice): 0 out of 10; Blood-sugar lowering activity, percent as compared with the controls (blood-sugar; [3]): n.s.; Blood-sugar lowering activity, percent as compared with the controls (blood-sugar; [4]): n.s.; Blood-sugar lowering activity, percent as compared with the controls (blood-sugar; [5]): n.s.; change in vivo at 1 mg/kg (blood-sugar; [2]): -18%; change in vivo at 10 mg/kg (blood-sugar; 1 hour): -49%; change in vivo at 10 mg/kg (blood-sugar; 2 hours): -50%; change in vivo at 10 mg/kg (blood-sugar; 3 hours, n.s. = not statistically significant): -36%; change in vivo at 10 mg/kg (blood-sugar; 4 hours, n.s. = not statistically significant): -31%

Q: With `CC/C=C(/NC(=O)Cc1ccc(C(=O)O)cc1)c1ccccc1N1CCCCC1` [C, (E)-4-[(1-(2-Piperidino-phenyl)-1-buten-1-yl)-aminocarbonylmethyl]-benzoic acid] as the molecule, how does the LD50 at 336 h [1] read?
A: > 2000 mg/kg

Q: And the animals died (mice)?
A: 0 out of 6

Q: And the change in vivo at 1 mg/kg (blood-sugar; [2])?
A: -43%

Q: What about the change in vivo at 1 mg/kg (blood-sugar; [3]) of the same molecule?
A: -43%

Q: What about the change in vivo at 1 mg/kg (blood-sugar; [4]) of the same molecule?
A: -37%

Q: What about the change in vivo at 1 mg/kg (blood-sugar; [5]) of the same molecule?
A: -38%

Q: With `CC(C)=C(NC(=O)Cc1ccc(C(=O)O)cc1)c1ccccc1N1CCCCC1` [D, 4-[(2-Methyl-1-(2-piperidino-phenyl)-1-propen-1-yl)-aminocarbonylmethyl]-benzoic acid] as the molecule, how does the LD50 at 336 h [1] read?
A: > 500 mg/kg

Q: What about the animals died (mice) of the same molecule?
A: 0 out of 6

Q: And the change in vivo at 1 mg/kg (blood-sugar; [2])?
A: -36%

Q: What about the change in vivo at 1 mg/kg (blood-sugar; [3]) of the same molecule?
A: -32%

Q: What about the change in vivo at 1 mg/kg (blood-sugar; [4]) of the same molecule?
A: -27%

Q: What about the change in vivo at 1 mg/kg (blood-sugar; [5]) of the same molecule?
A: -25%
